Measured values from patent US20130296311A1, “INHIBITORS OF HCV NS5A” (PRESIDIO PHARMACEUTICALS, INC., priority 2010, published 2013).

These compounds were tested on HCV 1b_Huh-Luc/Neo-ET cell line persistently expressing a bicistronic genotype 1b replicon in Huh 7 cells (assay: HCV replicon assay (luciferase readout, 72 h)). Settings: Hepatitis C virus, Huh-7, 72 h, read-out: Inhibition of HCV genotype 1b.
Type: cell-based, HCV genotype 1b
Method: Biological activity of the compounds of the invention was determined using an HCV replicon assay. The HCV 1b_Huh-Luc/Neo-ET cell line persistently expressing a bicistronic genotype 1b replicon in Huh 7 cells was obtained from ReBLikon GMBH. This cell line was used to test compound inhibition using luciferase enzyme activity readout as a measurement of compound inhibition of replicon levels.
On Day 1 (the day after plating), each compound is added in triplicate to the cells. Plates incubated for 72 h prior to running the luciferase assay. Enzyme activity was measured using a Bright-Glo Kit (cat. number E2620) manufactured by Promega Corporation. The following equation was used to generate a percent control value for each compound.
% Control=(Average Compound Value/Average Control)*100
The EC50 value was determined using GraphPad Prism and the following equation:
Y=Bottom+(Top-Bottom)/(1+10̂((LogIC50−X)*HillSlope))
EC50 values of compounds are determined several times in the replicon assay.
Example compounds of the disclosed invention are illustrated in Tables 1-16 attached as appendices. The tables show inhibitory activity of many of the example compounds with respect to HCV 1b. […] The tables further provide mass spectrometry results for the synthesized example compounds.
Work on COC(=O)N[C@@H](C(=O)N1CCC[C@H]1c1ncc(-c2ccc(C#Cc3ccc(-c4cnc([C@@H]5CCCN5C(=O)[C@H](NC(=O)OC)C(C)C)[nH]4)cc3)cc2)[nH]1)C(C)C [Compound 292] yielded an EC50 of over 1000 nM. Compound COC(=O)N[C@@H](C(=O)N1CCC[C@H]1c1ncc(-c2ccc(C#Cc3ccc(-c4cnc([C@@H]5CCCN5C(=O)[C@H](OC)c5ccccc5)[nH]4)cc3)cc2)[nH]1)c1ccccc1 [Compound 179] has an EC50 of under 1 nM. In the case of COC(=O)N[C@H](C(=O)N1CCC[C@H]1c1ncc(-c2ccc(C#Cc3ccc(-c4cnc([C@@H]5CCCN5C(=O)[C@@H](NC(=O)OC)[C@@H](C)O)[nH]4)cc3)cc2)[nH]1)[C@@H](C)O [Compound 283], the EC50 is reported as under 1 nM. Work on O=C(N[C@@H](C(=O)N1CCC[C@H]1c1ncc(C#Cc2ccc(-c3ccc(-c4cnc([C@@H]5CCCN5C(=O)[C@H](NC(=O)N5CC[C@H](O)C5)c5ccccc5)[nH]4)cc3)cc2)[nH]1)c1ccccc1)N1CC[C@H](O)C1 [Compound 762] yielded an EC50 of under 1 nM. In the case of CN1CCN(C(=O)N[C@@H](C(=O)N2CCC[C@H]2c2ncc(-c3ccc(C#Cc4ccc(-c5cnc([C@@H]6CCCN6C(=O)[C@H](NC(=O)C6CC6)c6ccccc6)[nH]5)cc4)cc3)[nH]2)c2ccccc2)CC1 [Compound 238], the EC50 is reported as under 1 nM. For COC(=O)NC(C)(C)C(=O)N1CCC[C@H]1c1ncc(-c2ccc(C#Cc3ccc4nc([C@@H]5CCCN5C(=O)C(C)(C)NC(=O)OC)[nH]c4c3)cc2)[nH]1 [Compound 1050], the EC50 was 10 to 999 nM. COC(=O)N[C@H](C(=O)N1CCC[C@H]1c1nc(-c2cnc3cc(C#Cc4ccc(-c5cnc([C@@H]6CCCN6C(=O)[C@@H](NC(=O)OC)c6ccccc6)[nH]5)cc4)ccc3c2)c[nH]1)c1ccccc1 [Compound 1089] was tested, and the EC50 was 10 to 999 nM. In the case of COC(=O)N[C@H](C(=O)N[C@@H](C)c1ncc(-c2ccc(C#Cc3ccc4nc([C@@H]5CCCN5C(=O)[C@@H](NC(=O)OC)C(C)C)[nH]c4c3)cc2)[nH]1)C(C)C [Compound 869], the EC50 is reported as under 1 nM. In the case of COC(=O)N[C@@H](C(=O)N1CCC[C@H]1c1ncc(-c2ccc(C#Cc3ccc(-c4cnc([C@@H]5CCCN5C(=O)NCc5ccccc5)[nH]4)cc3)cc2)[nH]1)c1ccccc1 [Compound 197], the EC50 is reported as under 1 nM. COC(=O)N[C@H](C(=O)N1CCC[C@H]1c1ncc(-c2ccc(C#Cc3ccc4nc([C@@H]5CCCN5C(=O)[C@@H](NC(=O)OC)[C@@H](C)O)[nH]c4c3)cc2)[nH]1)[C@@H](C)O [Compound 863] showed an EC50 of under 1 nM. In the case of O=C(N[C@@H](C(=O)N1CCC[C@H]1c1nc(-c2ccc3cc(C#Cc4cnc([C@@H]5CCCN5C(=O)[C@H](NC(=O)N5CC[C@H](O)C5)c5ccccc5)[nH]4)ccc3c2)c[nH]1)c1ccccc1)N1CC[C@H](O)C1 [Compound 806], the EC50 is reported as 1 to 9.9 nM. O=C(N[C@@H](C(=O)N1CCC[C@H]1C(=O)Nc1ccc(C#Cc2ccc(-c3cnc([C@@H]4CCCN4C(=O)[C@H](NC(=O)C4CC4)c4ccccc4)[nH]3)cc2)cc1)c1ccccc1)C1CC1 [Compound 166] showed an EC50 of under 1 nM. In the case of COC(=O)N[C@H](C(=O)N1CCC[C@H]1c1nc2c([nH]1)-c1ccc(C#Cc3ccc4nc([C@@H]5CCCN5C(=O)[C@@H](NC(=O)OC)C5CCOCC5)[nH]c4c3)cc1CC2)C(C)C [Compound 1102], the EC50 is reported as under 1 nM. In the case of CC(C)(C)OC(=O)NCC(=O)N1CCC[C@H]1c1ncc(C#Cc2ccc(-c3cnc([C@@H]4CCCN4C(=O)CNC(=O)OC(C)(C)C)[nH]3)cc2)[nH]1 [Compound 103], the EC50 is reported as 10 to 999 nM. In the case of CC(C)(C)OC(=O)N[C@@H](C(=O)N1CCC[C@H]1c1ncc(C#Cc2ccc(-c3ccc(-c4cnc([C@@H]5CCCN5C(=O)[C@H](NC(=O)OC(C)(C)C)c5ccccc5)[nH]4)cc3)cc2)[nH]1)c1ccccc1 [Compound 757], the EC50 is reported as under 1 nM. CC(C)(C)OC(=O)N[C@@H](C(=O)N1CCC[C@H]1c1ncc(C#Cc2ccc(C#Cc3cnc([C@@H]4CCCN4C(=O)[C@H](NC(=O)OC(C)(C)C)c4ccccc4)[nH]3)cc2)[nH]1)c1ccccc1 [Compound 300] was tested, and the EC50 was under 1 nM. Compound C(#Cc1ccc2nc([C@@H]3CCCN3)[nH]c2c1)c1ccc(-c2cnc([C@@H]3CCCN3)[nH]2)cc1 [Compound 1035] has an EC50 of 10 to 999 nM. CC(C)[C@@H](C(=O)N1CCC[C@H]1c1ncc(-c2ccc(C#Cc3ccc4nc([C@@H]5CCCN5C(=O)[C@H](C(C)C)N5CCOC5=O)[nH]c4c3)cc2)[nH]1)N1CCOC1=O [Compound 1039] showed an EC50 of 1 to 9.9 nM. O=C(N[C@@H](C(=O)N1CCC[C@H]1C(=O)NCc1ccc(C#Cc2cnc([C@@H]3CCCN3C(=O)[C@H](NC(=O)C3CC3)c3ccccc3)[nH]2)cc1)c1ccccc1)C1CC1 [Compound 121] gave an EC50 of under 1 nM. COC(=O)N[C@@H](C(=O)N1CCC[C@H]1c1ncc(-c2ccc(C#Cc3ccc(-c4cnc([C@@H]5CCCN5C(=O)[C@H](NC(=O)[C@@H]5CCCN5)c5ccccc5)[nH]4)cc3)cc2)[nH]1)c1ccccc1 [Compound 206] was tested, and the EC50 was under 1 nM. Compound COC(=O)N[C@@H](C(=O)N1CCC[C@H]1c1ncc(C#Cc2ccc(-c3ccc(-c4cnc([C@@H]5CCCN5C(=O)[C@H](NC(=O)OC(C)(C)C)c5ccccc5)[nH]4)cc3)cc2)[nH]1)c1ccccc1 [Compound 753] has an EC50 of under 1 nM. Compound CC(C)(C)OC(=O)N[C@@H](C(=O)N1CCC[C@H]1C(=O)NCc1ccc(C#Cc2cnc([C@@H]3CCCN3C(=O)[C@H](NC(=O)OC(C)(C)C)c3ccccc3)[nH]2)cc1)c1ccccc1 [Compound 119] has an EC50 of under 1 nM. Compound COC(=O)N[C@@H](C(=O)N1CCC[C@H]1c1ncc(-c2ccc(C#Cc3ccc(-c4cnc([C@@H]5CCCN5C(=O)[C@H](NC(=O)N5CCN(C)CC5)c5ccccc5)[nH]4)cc3)cc2)[nH]1)c1ccccc1 [Compound 240] has an EC50 of under 1 nM. With COC(=O)N[C@H](C(=O)N1CCOC[C@H]1c1ncc(-c2ccc(C#Cc3ccc4nc([C@@H]5CCCN5C(=O)[C@@H](NC(=O)OC)C(C)C)[nH]c4c3)cc2)[nH]1)C(C)C [Compound 1027] the EC50 was under 1 nM. With COC(=O)N[C@H](C(=O)N1CCC[C@H]1c1ncc(-c2ccc(C#Cc3ccc4nc([C@@H]5CCCN5C(=O)[C@@H](C(C)C)N(C)C)[nH]c4c3)cc2)[nH]1)C(C)C [Compound 1020] the EC50 was under 1 nM. In the case of C[C@@H](NC(=O)C1CC1)C(=O)N1CCC[C@H]1c1ncc(C#Cc2ccc(-c3cnc([C@@H]4CCCN4C(=O)[C@@H](C)NC(=O)C4CC4)[nH]3)cc2)[nH]1 [Compound 111], the EC50 is reported as 1 to 9.9 nM. COC(=O)N[C@H](C(=O)N[C@@H](C)c1ncc(-c2ccc(C#Cc3ccc(-c4cnc([C@H](C)NC(=O)[C@@H](NC(=O)OC)C(C)C)[nH]4)cc3)cc2)[nH]1)C(C)C [Compound 951] gave an EC50 of under 1 nM. COC(=O)N[C@H](C(=O)N1CCC[C@H]1c1ncc(C#Cc2ccc(-c3ccc4nc([C@@H]5CCCN5C(=O)[C@@H](NC(=O)OC)C(C)C)[nH]c4c3)cc2)[nH]1)C(C)C [Compound 1084] was tested, and the EC50 was under 1 nM. In the case of CC(C)[C@@H](NC(=O)OC(C)(C)C)C(=O)N1CCC[C@H]1c1ncc(-c2ccc(C#Cc3ccc(-c4cnc([C@@H]5CCCN5C(=O)[C@H](NC(=O)OC(C)(C)C)C(C)C)[nH]4)cc3)cc2)[nH]1 [Compound 152], the EC50 is reported as 10 to 999 nM. COC(=O)N[C@H](C(=O)N1CCC[C@H]1c1nc2ccc(C#Cc3ccc(-c4cnc([C@@H]5CCCN5C(=O)[C@H](C(C)C)N(C)C)[nH]4)cc3)cc2[nH]1)C(C)C [Compound 866] showed an EC50 of under 1 nM.

Same assay, conditions: Hepatitis C virus, Huh-7, read-out: Inhibition of HCV genotype 1b
COC(=O)N[C@@H](C(=O)N1CCC[C@H]1c1ncc(-c2ccc(C#Cc3ccc(-c4cnc([C@@H]5CCCN5C(=O)[C@H](NC(=O)OC)c5ccccc5)[nH]4)cc3C(=O)OC)cc2)[nH]1)c1ccccc1 [Compound 1201] showed an EC50 of under 1 nM. CC[C@H](NC(=O)OC)C(=O)N1CCC[C@H]1c1ncc(-c2ccc(C#Cc3ccc4nc([C@@H]5CCCN5C(=O)[C@@H](NC(=O)OC)[C@@H](C)OC)[nH]c4c3)cc2)[nH]1 [Compound 1247] gave an EC50 of under 1 nM. In the case of COC(=O)N[C@H](C(=O)N1CCC[C@H]1c1nc2c([nH]1)-c1ccc(C#Cc3ccc4nc([C@@H]5CCCN5C(=O)[C@H](NC(=O)OC)c5ccccc5)[nH]c4c3)cc1CCC2)C(C)C [Compound 1281], the EC50 is reported as under 1 nM. Compound CC[C@H](C)[C@H](NC(=O)OC)C(=O)N1CCC[C@H]1c1ncc(-c2ccc(C#Cc3ccc(-c4cnc([C@@H]5CCCN5C(=O)[C@@H](NC(=O)OC)C5CCOCC5)[nH]4)cc3)cc2)[nH]1 [Compound 1220] has an EC50 of under 1 nM. Work on COC(=O)N[C@H](C(=O)N1CCC[C@H]1c1ncc(-c2ccc3cc(C#Cc4[nH]c([C@@H]5CCCN5C(=O)[C@@H](NC(=O)OC)C5CCCC5)nc4C(F)(F)F)ccc3c2)[nH]1)C1CCCC1 [Compound 1254] yielded an EC50 of under 1 nM. With COC(=O)N[C@@H](C(=O)N[C@@H](C)c1ncc(-c2ccc(C#Cc3ccc4nc([C@@H]5CCCN5C(=O)[C@H](NC(=O)OC)c5ccccc5)[nH]c4c3)cc2)[nH]1)c1ccccc1 [Compound 1226] the EC50 was under 1 nM. Compound COC(=O)NC(C(=O)N1CCC[C@H]1c1nc2ccc(C#Cc3ccc4cc(-c5cnc([C@@H]6CCCN6C(=O)[C@H](NC(=O)OC)c6ccccc6)[nH]5)ccc4n3)cc2[nH]1)C(C)C (stereo partly drawn) [Compound 1289] has an EC50 of under 1 nM. Work on COC(=O)NC(C(=O)N1CCC[C@H]1c1nc2ccc(C#Cc3ccc4cc(-c5cnc([C@@H]6CCCN6C(=O)[C@H](NC(=O)OC6CCOCC6)c6ccccc6)[nH]5)ccc4n3)cc2[nH]1)C(C)C (stereo partly drawn) [Compound 1291] yielded an EC50 of under 1 nM. CC[C@H](C)[C@H](NC(=O)OC)C(=O)N1CCC[C@H]1c1ncc(-c2ccc3cc(C#Cc4[nH]c([C@@H]5CCCN5C(=O)[C@@H](NC(=O)OC)[C@@H](C)OC)nc4C(F)(F)F)ccc3c2)[nH]1 [Compound 1259] was tested, and the EC50 was under 1 nM.
